# Several values for one entry are separate records, joined by “and”; a condition that tells them apart may be missing. Equal entries are not always repeated.
# Test system: extracellular serotonin (5-HT) in the nucleus accumbens (NAcc)
# Assay: In vivo microdialysis in rat nucleus accumbens, serotonin
# Parameters: species or system Sprague Dawley rats
# Settings: 7 mg/kg I.P.; for peak 5-HT level: baseline = 100%; for Serotonin (5-HT) level (% from baseline): rat NAcc
# Description: Methods and Procedure: This study was conducted in compliance with previously described procedures to assure data integrity, adherence to GLP regulations, and standard preclinical study and surgery procedures. The in vivo microdialysis technique was applied to measure the over-time variations of DA, 5-HT, and NE extracellular (EC) concentrations in conscious, freely-moving Sprague Dawley rats. Levels of the neurotransmitters in microdialysis samples were determined using LC-MS/MS analysis. The experiment was also conducted with MDMA for comparative purposes.
# As it relates to cannula implantation, the rats were anesthetized with isoflurane 4% in oxygen (2-2.5 L/min), then the isoflurane concentration 2-2.5% was maintained via a nose cone adapted to the stereotaxic apparatus. The rats were treated with meloxicam (0.2 mg/kg, subcutaneously, sc; Meloxidolor) and amoxicilline (150 mg/kg, sc, Betamox LA). The skull was then shaved and disinfected. Rats were then placed in a stereotaxic apparatus for small animals. One vertical guide cannula was inserted through a 1 mm hole drilled on the exposed skull. Coordinates, with respect to the bregma to target specific brain areas, followed indications from stereotaxic atlas of the rat brain. Specifically a guide cannula (MAB 4.12.IC, Agn Tho's AB, Lidinga, Sweden) was inserted in the NAcc (anteroposterior+1.6; lateral −1.6; dorsoventral −6.0). The guide cannula was then secured with dental cement and 2-4 screws. At the end of the surgery the animal was isolated in a single cage during recovery, for a period of at least one week, during which animal health conditions were checked twice daily and the weight recorded twice a week. Animals continued to be housed singly throughout the experiment. One day before the experiment the cannula stylet was removed and a microdialysis probe with a dialyzing length of 2 mm (MAB 4.12.2 Cu, Agn Tho's AB, Lidingo, Sweden) was inserted. Probes can be re-used 2 times for 2 experimental sessions after appropriate cleaning with fresh milliQ water.
# Post-surgery, the rats were maintained in a heating chamber prior to waking up in order to avoid hypothermia that could be caused by anaesthesia. 5 mL of physiologic solution was subcutaneously administered immediately after surgery, and once/day for 2-3 days, if signs of dehydration are noticed. Meloxicam (Meloxidolor) 0.2 mg/kg was again administered subcutaneously the day after surgery as well as after 48 h after surgery together with Amoxicilline Long Acting (Betamox LA) 150 mg/kg. Health status and body weight was checked every day during the first week.
# The animals were treated with the therapeutic compounds, and MDMA, or their vehicle (saline) according to a Latin square design over 5 separate experimental days (one day/week). The treatments were administered in a volume of 1 mL/kg intraperitoneally.
# On the day of the experiment, each animal was taken into the laboratory in its home cage. Inlet tubing of the probe was attached to a dual quartz-lined two channel liquid swivel mounted on a low mass spring counterbalance arm which, in turn, was connected to a gas-tight syringe on a microinfusion pump. […] An equilibration period of about two hours of perfusion was allowed before collecting samples. Following the equilibration period, 4 basal samples were collected for each experimental animal followed by further 10 post-treatment samples. Samples were collected every 20 minutes (up to 3 hours and 20 minutes post-treatment) by means of a refrigerated auto-sampler (Univentor 820 Microsampler, AgnTho's, Sweden) maintained at +8 “C. At the end of all experimental sessions, 2 μL of 0.1% methylene blue solution was injected through the microdialysis probe, animals were euthanized, and their brains removed to confirm the correct probe-position.
# As mentioned, the concentration of DA, 5-HT and NE in CSF samples were determined using an optimized method based on LC-MS/MS analysis. […]
SMILES,time at which 5-HT levels returned to baseline (rat NAcc microdialysis) [min],time of peak 5-HT level (rat NAcc microdialysis) [min],peak 5-HT level (rat NAcc microdialysis) [%],Serotonin (5-HT) level (% from baseline) (0 min (basal sample)) [%],Serotonin (5-HT) level (% from baseline) (20 min post-admin) [%],Serotonin (5-HT) level (% from baseline) (40 min post-admin) [%],Serotonin (5-HT) level (% from baseline) (60 min post-admin) [%],Serotonin (5-HT) level (% from baseline) (80 min post-admin) [%],Serotonin (5-HT) level (% from baseline) (100 min post-admin) [%],Serotonin (5-HT) level (% from baseline) (120 min post-admin) [%],Serotonin (5-HT) level (% from baseline) (140 min post-admin) [%],Serotonin (5-HT) level (% from baseline) (160 min post-admin) [%],Serotonin (5-HT) level (% from baseline) (180 min post-admin) [%],Serotonin (5-HT) level (% from baseline) (200 min post-admin) [%],Serotonin (5-HT) level (% from baseline) (−20 min (basal sample)) [%],"peak 5-HT level (rat NAcc microdialysis, 7 mg/kg)","Serotonin (5-HT) level (% from baseline) (180 min post-admin, 7 mg/kg)"
"COC(=O)c1ccc2c(c1)CC(N)C2 (stereo not shown) [CMP-405, 2-aminoindane-5-methylcarboxylate]",180,60,289,97,114,353,289,182,157,140,115,113,100,105,103,,
"COc1ccc2c(c1)CC(N)C2 (stereo not shown) [MEAI, 5-methoxy-2-aminoindane]",,40,,98,446,2365,2248,1391,1036,830,688,564,,340,102,2365% and ~2500%,470%
CNC(C)Cc1ccc2c(c1)OCO2 (stereo not shown) [MDMA],,60,2232,98,135,2000,2232,1780,1545,1472,1255,1083,,871,102,,980% and 972%
